Experimental data as given in PubChem BioAssay AID1259407 (Chemical Carcinogenesis Research Information System (CCRIS), 2018).
Calls of active or inactive are those of the source. No rule for the calls is given here.

Tested on: CCRIS mutagenicity, Ames/micronucleus/aberration tests
Assay: CCRIS mutagenicity studies
[1] = Test System: AMES SALMONELLA TYPHIMURIUM, Strain/Indicator: TA98, Metabolic Activation: NONE, Method: PREINCUBATION
[2] = Test System: AMES SALMONELLA TYPHIMURIUM, Strain/Indicator: TA100, Metabolic Activation: NONE, Method: PREINCUBATION

O=[N+]([O-])c1c(O)c(Cl)cc(Cl)c1Cl
mutagenic call (Test System: AMES SALMONELLA TYPHIMURIUM, Strain/Indicator: TA97, Metabolic Activation: HAMSTER, LIVER, S-9, AROCLOR 1254 (5 OR 10%), Method: PREINCUBATION): inactive; negative | mutagenic call (Test System: AMES SALMONELLA TYPHIMURIUM, Strain/Indicator: TA97, Metabolic Activation: HAMSTER, LIVER, S-9, AROCLOR 1254 (30%), Method: PREINCUBATION): inactive; negative | mutagenic call (Test System: AMES SALMONELLA TYPHIMURIUM, Strain/Indicator: TA97, Metabolic Activation: NONE, Method: PREINCUBATION): inactive; negative | mutagenic call (Test System: AMES SALMONELLA TYPHIMURIUM, Strain/Indicator: TA97, Metabolic Activation: RAT, LIVER, S-9, AROCLOR 1254 (10%), Method: PREINCUBATION): inactive; negative | mutagenic call (Test System: AMES SALMONELLA TYPHIMURIUM, Strain/Indicator: TA97, Metabolic Activation: RAT, LIVER, S-9, AROCLOR 1254 (30%), Method: PREINCUBATION): inactive; negative | mutagenic call (Test System: AMES SALMONELLA TYPHIMURIUM, Strain/Indicator: TA98, Metabolic Activation: HAMSTER, LIVER, S-9, AROCLOR 1254 (10%), Method: PREINCUBATION): inactive; negative | mutagenic call (Test System: AMES SALMONELLA TYPHIMURIUM, Strain/Indicator: TA98, Metabolic Activation: HAMSTER, LIVER, S-9, AROCLOR 1254 (30%), Method: PREINCUBATION): inactive; negative | mutagenic call [1]: inactive; negative | mutagenic call (Test System: AMES SALMONELLA TYPHIMURIUM, Strain/Indicator: TA98, Metabolic Activation: RAT, LIVER, S-9, AROCLOR 1254 (10%), Method: PREINCUBATION): inactive; negative | mutagenic call (Test System: AMES SALMONELLA TYPHIMURIUM, Strain/Indicator: TA98, Metabolic Activation: RAT, LIVER, S-9, AROCLOR 1254 (30%), Method: PREINCUBATION): inactive; negative | mutagenic call (Test System: AMES SALMONELLA TYPHIMURIUM, Strain/Indicator: TA100, Metabolic Activation: HAMSTER, LIVER, S-9, AROCLOR 1254 (10%), Method: PREINCUBATION): inactive; negative | mutagenic call (Test System: AMES SALMONELLA TYPHIMURIUM, Strain/Indicator: TA100, Metabolic Activation: HAMSTER, LIVER, S-9, AROCLOR 1254 (30%), Method: PREINCUBATION): inactive; negative | mutagenic call [2]: inactive; negative | mutagenic call (Test System: AMES SALMONELLA TYPHIMURIUM, Strain/Indicator: TA100, Metabolic Activation: RAT, LIVER, S-9, AROCLOR 1254 (10%), Method: PREINCUBATION): inactive; negative | mutagenic call (Test System: AMES SALMONELLA TYPHIMURIUM, Strain/Indicator: TA100, Metabolic Activation: RAT, LIVER, S-9, AROCLOR 1254 (30%), Method: PREINCUBATION): inactive; negative | mutagenic call (Test System: AMES SALMONELLA TYPHIMURIUM, Strain/Indicator: TA1535, Metabolic Activation: HAMSTER, LIVER, S-9, AROCLOR 1254 (10%), Method: PREINCUBATION): inactive; negative | mutagenic call (Test System: AMES SALMONELLA TYPHIMURIUM, Strain/Indicator: TA1535, Metabolic Activation: HAMSTER, LIVER, S-9, AROCLOR 1254 (30%), Method: PREINCUBATION): inactive; negative | mutagenic call (Test System: AMES SALMONELLA TYPHIMURIUM, Strain/Indicator: TA1535, Metabolic Activation: NONE, Method: PREINCUBATION): inactive; negative | mutagenic call (Test System: AMES SALMONELLA TYPHIMURIUM, Strain/Indicator: TA1535, Metabolic Activation: RAT, LIVER, S-9, AROCLOR 1254 (10%), Method: PREINCUBATION): inactive; negative | mutagenic call (Test System: AMES SALMONELLA TYPHIMURIUM, Strain/Indicator: TA1535, Metabolic Activation: RAT, LIVER, S-9, AROCLOR 1254 (30%), Method: PREINCUBATION): inactive; negative | mutagenic call (Test System: AMES SALMONELLA TYPHIMURIUM, Strain/Indicator: TA1537, Metabolic Activation: HAMSTER, LIVER, S-9, AROCLOR 1254 (30%), Method: PREINCUBATION): inactive; negative | mutagenic call (Test System: AMES SALMONELLA TYPHIMURIUM, Strain/Indicator: TA1537, Metabolic Activation: NONE, Method: PREINCUBATION): inactive; negative | mutagenic call (Test System: AMES SALMONELLA TYPHIMURIUM, Strain/Indicator: TA1537, Metabolic Activation: RAT, LIVER, S-9, AROCLOR 1254 (30%), Method: PREINCUBATION): inactive; negative

O=C(O)c1c(Cl)cccc1Cl
mutagenic call [1]: inactive; negative | mutagenic call (Test System: AMES SALMONELLA TYPHIMURIUM, Strain/Indicator: TA98, Metabolic Activation: RAT LIVER S-9, PCB, Method: PREINCUBATION): inactive; negative | mutagenic call [2]: inactive; negative | mutagenic call (Test System: AMES SALMONELLA TYPHIMURIUM, Strain/Indicator: TA100, Metabolic Activation: RAT LIVER S-9, PCB, Method: PREINCUBATION): inactive; negative | mutagenic call (Test System: AMES SALMONELLA TYPHIMURIUM, Strain/Indicator: TA104, Metabolic Activation: NONE, Method: PREINCUBATION): inactive; negative | mutagenic call (Test System: AMES SALMONELLA TYPHIMURIUM, Strain/Indicator: TA104, Metabolic Activation: RAT LIVER S-9, PCB, Method: PREINCUBATION): inactive; negative | mutagenic call (Test System: E.COLI, Strain/Indicator: WP2 UVRA, Metabolic Activation: NONE, Method: PREINCUBATION): inactive; negative | mutagenic call (Test System: E.COLI, Strain/Indicator: WP2 UVRA, Metabolic Activation: RAT LIVER S-9, PCB, Method: PREINCUBATION): inactive; negative

Nc1nc2c(ncn2[C@@H]2C=C[C@H](CO)C2)c(=O)[nH]1
mutagenic call (Test System: AMES SALMONELLA TYPHIMURIUM, Strain/Indicator: TA98, Metabolic Activation: HAMSTER, LIVER, S-9, AROCLOR 1254 (10%), Method: STANDARD PLATE): inactive; negative | mutagenic call (Test System: AMES SALMONELLA TYPHIMURIUM, Strain/Indicator: TA98, Metabolic Activation: NONE, Method: STANDARD PLATE): inactive; negative | mutagenic call (Test System: AMES SALMONELLA TYPHIMURIUM, Strain/Indicator: TA98, Metabolic Activation: RAT, LIVER, S-9, AROCLOR 1254 (10%), Method: STANDARD PLATE): inactive; negative | mutagenic call (Test System: AMES SALMONELLA TYPHIMURIUM, Strain/Indicator: TA100, Metabolic Activation: HAMSTER, LIVER, S-9, AROCLOR 1254 (10%), Method: STANDARD PLATE): inactive; negative | mutagenic call (Test System: AMES SALMONELLA TYPHIMURIUM, Strain/Indicator: TA100, Metabolic Activation: NONE, Method: STANDARD PLATE): inactive; negative | mutagenic call (Test System: AMES SALMONELLA TYPHIMURIUM, Strain/Indicator: TA100, Metabolic Activation: RAT, LIVER, S-9, AROCLOR 1254 (10%), Method: STANDARD PLATE): inactive; negative | mutagenic call (Test System: AMES SALMONELLA TYPHIMURIUM, Strain/Indicator: TA1535, Metabolic Activation: HAMSTER, LIVER, S-9, AROCLOR 1254 (10%), Method: STANDARD PLATE): inactive; negative | mutagenic call (Test System: AMES SALMONELLA TYPHIMURIUM, Strain/Indicator: TA1535, Metabolic Activation: NONE, Method: STANDARD PLATE): inactive; negative | mutagenic call (Test System: AMES SALMONELLA TYPHIMURIUM, Strain/Indicator: TA1535, Metabolic Activation: RAT, LIVER, S-9, AROCLOR 1254 (10%), Method: STANDARD PLATE): inactive; negative | mutagenic call (Test System: AMES SALMONELLA TYPHIMURIUM, Strain/Indicator: TA1537, Metabolic Activation: HAMSTER, LIVER, S-9, AROCLOR 1254 (10%), Method: STANDARD PLATE): inactive; negative | mutagenic call (Test System: AMES SALMONELLA TYPHIMURIUM, Strain/Indicator: TA1537, Metabolic Activation: NONE, Method: STANDARD PLATE): inactive; negative | mutagenic call (Test System: AMES SALMONELLA TYPHIMURIUM, Strain/Indicator: TA1537, Metabolic Activation: RAT, LIVER, S-9, AROCLOR 1254 (10%), Method: STANDARD PLATE): inactive; negative | mutagenic call (Test System: AMES SALMONELLA TYPHIMURIUM, Strain/Indicator: TA1538, Metabolic Activation: HAMSTER, LIVER, S-9, AROCLOR 1254 (10%), Method: STANDARD PLATE): inactive; negative | mutagenic call (Test System: AMES SALMONELLA TYPHIMURIUM, Strain/Indicator: TA1538, Metabolic Activation: NONE, Method: STANDARD PLATE): inactive; negative | mutagenic call (Test System: AMES SALMONELLA TYPHIMURIUM, Strain/Indicator: TA1538, Metabolic Activation: RAT, LIVER, S-9, AROCLOR 1254 (10%), Method: STANDARD PLATE): inactive; negative | mutagenic call (Test System: MOUSE LYMPHOMA, Strain/Indicator: L5178Y (TK+/TK-), Metabolic Activation: NONE, Method: SUSPENSION/PLATE): inactive; negative. reevaluation of results: inconclusive | mutagenic call (Test System: MOUSE LYMPHOMA, Strain/Indicator: L5178Y (TK+/TK-), Metabolic Activation: RAT, LIVER, S-9, AROCLOR 1254, Method: SUSPENSION/PLATE): active; positive; reevaluation of results: positive | mutagenic call (Test System: Mouse lymphoma, Strain/Indicator: L5178Y (tk+/tk-), Metabolic Activation: None, Method: Suspension/plate): inactive; negative | mutagenic call (Test System: Mouse lymphoma, Strain/Indicator: L5178Y (tk+/tk-), Metabolic Activation: Rat, Liver, S-9, Aroclor 1254, Method: Suspension/plate): inactive; negative
